Results published in patent publication US10233195B2, “Anti-fibrotic pyridinones” (InterMune, Inc., priority 2014, dated 2019).

Test system: TGF-b induced Endothelin-1 production
Assay: ET-1 assay: inhibitory effect on TGF-b induced endothelin-1 production
Format: cell-based
Details: Homo sapiens, Fibroblast; fibroblasts, stimulant (TGFb, serum, LPA etc), ET-1 in media by ELISA, 4-parameter fit
Experimental: Assay of Inhibitory Effect on TGF-b Induced Endothelin-1 Production
Fibroblasts (primary human lung and dermal, HFL-1, 3T3 etc) are seeded in 96-well plates at ˜15000 cells/well and serum starved for 0-48 hours. After media exchange, compounds serially diluted in DMSO are added to the cells. After a brief incubation of ˜30 min, stimulants (TGFb, serum, LPA etc) are added followed by further incubation for 16-48 hours. Media is then harvested and stored frozen in plate format for later endothelin-1 (ET-1) determination by ELISA. Toxicity measurements are made using the ATPlite kit (Perkin-Elmer). ET-1 is quantified using an ELISA kit (R&D Systems). The amount of ET-1 produced in the assay wells are back-calculated using the ELISA standard. The ability of a compound to inhibit ET-1 production is typically analyzed by fitting dose-response curves to a 4-parameter logistic function to obtain an EC50 value. A measure of cytotoxicity (CC50) is likewise reported from the same experiment using the ATPlite data.
Compounds of some embodiments were prepared according to synthetic methods described herein and assay data obtained for EC50 against ET-1. The assay data obtained is presented in Table 2, in which A=less than 50 μM, B=greater than or equal to 50 μM and less than or equal to 200 μM; and C=greater than 200 μM.

Row | SMILES | EC50 [µM]
1 | CC(=O)c1ccc(=O)n(-c2cccc(C(F)(F)F)c2)c1 [Compound 11] | > 200
2 | CC(=O)c1ccc(=O)n(-c2ccc(Cl)cc2)c1 [Compound 12] | > 200
3 | COc1cccc(-n2cc(C(C)=O)ccc2=O)c1 [Compound 14] | > 200
4 | CC(=O)c1ccc(=O)n(-c2cccc(F)c2)c1 [Compound 15] | > 200
5 | CC(=O)Nc1cccc(-n2cc(C(C)=O)ccc2=O)c1 [Compound 18] | > 200
6 | CC(=O)c1ccc(=O)n(-c2ccccc2Cl)c1 [Compound 19] | 50 to 200
7 | COCCOc1ccc(-n2cc(-c3ccc(F)cc3)c(C)cc2=O)cc1 [Compound 23] | 50 to 200
8 | COCCOc1ccc(-n2cc(-c3cn[nH]c3)c(C)cc2=O)cc1 [Compound 24] | > 200
9 | COCCOc1ccc(-n2cc(-c3cnn(C)c3)c(C)cc2=O)cc1 [Compound 25] | > 200
10 | COCCOc1ccc(-n2cc(-c3ccccc3)c(C)cc2=O)cc1 [Compound 26] | < 50
11 | O=c1ccc2c(n1-c1ccccc1)CCC2 [Compound 27] | > 200
12 | O=c1c2c(c(-c3ccc(F)cc3)cn1-c1ccc(OC(F)(F)F)cc1)CCCC2 [Compound 32] | > 200
13 | Cn1cc(-c2cn(-c3ccc(OC(F)(F)F)cc3)c(=O)c3c2CCCC3)cn1 [Compound 33] | < 50
14 | O=c1c2c(c(-c3cccc(F)c3)cn1-c1ccc(OC(F)(F)F)cc1)CCCC2 [Compound 34] | < 50
15 | CCOc1ccc(-n2cc(-c3cnn(C)c3)c3c(c2=O)CCCC3)c(C)c1 [Compound 35] | < 50
16 | CCOc1ccc(-n2cc(-c3cn[nH]c3)c3c(c2=O)CCCC3)c(C)c1 [Compound 36] | < 50
17 | O=c1c2c(c(-c3cn[nH]c3)cn1-c1ccc(OC(F)(F)F)cc1)CCCC2 [Compound 37] | 50 to 200
18 | O=c1c2ccc(C(F)(F)F)nc2c(-c2ccc(F)cc2)cn1-c1ccc(OC(F)(F)F)cc1 [Compound 38] | > 200
19 | Cn1cc(-c2cn(-c3ccc(OC(F)(F)F)cc3)c(=O)c3ccc(C(F)(F)F)nc23)cn1 [Compound 39] | < 50
20 | O=c1c2nsnc2c(-c2ccc(F)cc2)cn1-c1ccc(OC(F)(F)F)cc1 [Compound 40] | > 200
21 | O=c1c2cccnc2c(-c2ccc(F)cc2)cn1-c1ccc(OC(F)(F)F)cc1 [Compound 42] | > 200
22 | Cn1cc(-c2cn(-c3ccc(OC(F)(F)F)cc3)c(=O)c3c2NCCC3)cn1 [Compound 44] | > 200
23 | O=c1c2c(c(-c3ccc(F)cc3)cn1-c1ccc(OC(F)(F)F)cc1)NCCC2 [Compound 45] | > 200
24 | O=c1c2ncn(Cc3ccccc3)c2c(-c2ccc(F)cc2)cn1-c1ccc(OC(F)(F)F)cc1 [Compound 54] | > 200
25 | Cn1cc(-c2cn(-c3ccc(OC(F)(F)F)cc3)c(=O)c3ncn(Cc4ccccc4)c23)cn1 [Compound 55] | > 200
26 | O=c1c2nc[nH]c2c(-c2ccc(F)cc2)cn1-c1ccc(OC(F)(F)F)cc1 [Compound 56] | > 200

Row | SMILES | EC50 [µM]
27 | Cn1cc(-c2cn(-c3ccc(OC(F)(F)F)cc3)c(=O)c3nc[nH]c23)cn1 [Compound 57] | > 200
28 | CCOc1ccc(-n2cc(-c3ccc(F)cc3)c3nccnc3c2=O)c(C)c1 [Compound 62] | > 200
29 | O=c1ccc(C2CCCC2)cn1-c1ccccc1 [Compound 64] | 50 to 200
30 | O=c1ccc(C2CCC2)cn1-c1ccccc1 [Compound 65] | > 200
31 | O=c1ccc(C2CCCCC2)cn1-c1ccccc1 [Compound 66] | 50 to 200
32 | CC(=O)n1cc(-c2ccc(=O)n(-c3ccccc3)c2)cn1 [Compound 67] | > 200
33 | CCCCOC(=O)n1cc(-c2ccc(=O)n(-c3ccccc3)c2)cn1 [Compound 74] | 50 to 200
34 | O=c1ccc(-c2ccc(F)cc2)cn1CCc1ccccc1 [Compound 77] | 50 to 200
35 | Cc1ccc(=O)n(Cc2ccccc2)c1 [Compound 78] | > 200
36 | O=c1ccc(-c2ccc(F)cc2)cn1Cc1ccccc1 [Compound 79] | < 50
37 | O=C1Cc2ccccc2N1c1ccc(OC(F)(F)F)cc1 [Compound 81] | 50 to 200
38 | Cc1ccc2c(c1)CC(=O)N2c1ccc(OC(F)(F)F)cc1 [Compound 82] | > 200
39 | C[C@H]1CCC(=O)N(c2ccccc2)C1 [Compound 83] | > 200
40 | C[C@@H]1CCC(=O)N(c2ccccc2)C1 [Compound 84] | > 200
41 | COc1cc(=O)n(-c2ccc(OC(F)(F)F)cc2)cc1-c1ccc(F)cc1 [Compound 85] | > 200
42 | Nc1cc(=O)n(-c2ccc(OC(F)(F)F)cc2)cc1-c1ccc(F)cc1 [Compound 88] | 50 to 200
43 | O=c1cc(NCc2ccccc2)c(-c2ccc(F)cc2)cn1-c1ccc(OC(F)(F)F)cc1 [Compound 89] | > 200
44 | CNc1cc(=O)n(-c2ccc(OC(F)(F)F)cc2)cc1-c1ccc(F)cc1 [Compound 90] | > 200
45 | O=c1cc(OCc2ccccc2)c(-c2ccc(F)cc2)cn1-c1ccc(OC(F)(F)F)cc1 [Compound 91] | > 200
46 | O=c1cc(OCCN2CCOCC2)c(-c2ccc(F)cc2)cn1-c1ccc(OC(F)(F)F)cc1 [Compound 92] | 50 to 200
47 | O=c1cc(OCCN2CCCC2)c(-c2ccc(F)cc2)cn1-c1ccc(OC(F)(F)F)cc1 [Compound 93] | < 50
48 | O=c1cc(OCCN2CCS(=O)(=O)CC2)c(-c2ccc(F)cc2)cn1-c1ccc(OC(F)(F)F)cc1 [Compound 94] | > 200
49 | CN1CCC(Oc2cc(=O)n(-c3ccc(OC(F)(F)F)cc3)cc2-c2ccc(F)cc2)CC1 [Compound 95] | < 50
50 | COCCOc1cc(=O)n(-c2ccc(OC(F)(F)F)cc2)cc1-c1ccc(F)cc1 [Compound 96] | > 200
51 | O=C1CCCN1CCOc1cc(=O)n(-c2ccc(OC(F)(F)F)cc2)cc1-c1ccc(F)cc1 [Compound 97] | > 200
52 | O=C1COCCN1CCOc1cc(=O)n(-c2ccc(OC(F)(F)F)cc2)cc1-c1ccc(F)cc1 [Compound 98] | 50 to 200

Row | SMILES | EC50 [µM]
53 | O=c1cc(OC2CCS(=O)(=O)CC2)c(-c2ccc(F)cc2)cn1-c1ccc(OC(F)(F)F)cc1 [Compound 99] | < 50
54 | CN1CCN(CCOc2cc(=O)n(-c3ccc(OC(F)(F)F)cc3)cc2-c2ccc(F)cc2)CC1 [Compound 100] | < 50
55 | O=c1cc(Oc2ccccc2)c(-c2ccc(F)cc2)cn1-c1ccc(OC(F)(F)F)cc1 [Compound 102] | > 200
56 | O=C(Nc1cc(=O)n(-c2ccc(OC(F)(F)F)cc2)cc1-c1ccc(F)cc1)OCc1ccccc1 [Compound 103] | > 200
57 | CC(=O)Nc1cc(=O)n(-c2ccc(OC(F)(F)F)cc2)cc1-c1ccc(F)cc1 [Compound 104] | > 200
58 | CCCOC(=O)Nc1cc(=O)n(-c2ccc(OC(F)(F)F)cc2)cc1-c1ccc(F)cc1 [Compound 105] | > 200
59 | CCC(=O)Nc1cc(=O)n(-c2ccc(OC(F)(F)F)cc2)cc1-c1ccc(F)cc1 [Compound 106] | > 200
60 | CCCCC(=O)Nc1cc(=O)n(-c2ccc(OC(F)(F)F)cc2)cc1-c1ccc(F)cc1 [Compound 107] | > 200
61 | CC(C)C(=O)Nc1cc(=O)n(-c2ccc(OC(F)(F)F)cc2)cc1-c1ccc(F)cc1 [Compound 108] | > 200
62 | CCCC(=O)Nc1cc(=O)n(-c2ccc(OC(F)(F)F)cc2)cc1-c1ccc(F)cc1 [Compound 110] | > 200
63 | COC(=O)Nc1cc(=O)n(-c2ccc(OC(F)(F)F)cc2)cc1-c1ccc(F)cc1 [Compound 111] | > 200
64 | CC(C)OC(=O)Nc1cc(=O)n(-c2ccc(OC(F)(F)F)cc2)cc1-c1ccc(F)cc1 [Compound 112] | > 200
65 | O=C(Nc1cc(=O)n(-c2ccc(OC(F)(F)F)cc2)cc1-c1ccc(F)cc1)Oc1ccccc1 [Compound 113] | > 200
66 | CCCNC(=O)Nc1cc(=O)n(-c2ccc(OC(F)(F)F)cc2)cc1-c1ccc(F)cc1 [Compound 115] | > 200
67 | O=C(NCc1ccccc1)Nc1cc(=O)n(-c2ccc(OC(F)(F)F)cc2)cc1-c1ccc(F)cc1 [Compound 116] | > 200
68 | O=C(NCc1ccccc1)c1cc(=O)n(-c2ccc(OC(F)(F)F)cc2)cc1-c1ccc(F)cc1 [Compound 118] | > 200
69 | Cn1cc(-c2cn(-c3ccc(OC(F)(F)F)cc3)c(=O)cc2O)cn1 [Compound 121] | > 200
70 | Cn1cc(-c2cn(-c3ccc(OC(F)(F)F)cc3)c(=O)cc2Cl)cn1 [Compound 122] | > 200
71 | Cn1cc(-c2cn(-c3ccc(OC(F)(F)F)cc3)c(=O)cc2N)cn1 [Compound 124] | > 200
72 | CNc1cc(=O)n(-c2ccc(OC(F)(F)F)cc2)cc1-c1cnn(C)c1 [Compound 125] | > 200
73 | Cn1cc(-c2cn(-c3ccc(OC(F)(F)F)cc3)c(=O)cc2N2CCCCC2)cn1 [Compound 127] | > 200
74 | Cn1cc(-c2cn(-c3ccc(OC(F)(F)F)cc3)c(=O)cc2N2CCOCC2)cn1 [Compound 128] | < 50
75 | Cn1cc(-c2cn(-c3ccc(OC(F)(F)F)cc3)c(=O)cc2N2CCc3ccccc3C2)cn1 [Compound 129] | 50 to 200
76 | Cn1cc(-c2cn(-c3ccc(OC(F)(F)F)cc3)c(=O)cc2Nc2ccccc2)cn1 [Compound 130] | > 200
77 | Cn1cc(-c2cn(-c3ccc(OC(F)(F)F)cc3)c(=O)cc2NCCc2ccccc2)cn1 [Compound 131] | > 200
78 | Cn1cc(-c2cn(-c3ccc(OC(F)(F)F)cc3)c(=O)cc2NCc2c(Cl)cccc2Cl)cn1 [Compound 132] | > 200
